Ends that are not written are not given here.
Key:
[1] = test system: secreted epimorphin in HaCaT-TE cell culture supernatant; experiment: Reference Example 2: secreted epimorphin in HaCaT-TE cell culture supernatant (Western blotting); type: cell-based, human; settings: 0.01 or 0.025 volume % oleic acid in DH10 medium, 3 days
Experimental: (§1) The HaCaT-TE cells obtained in Production Example 1 or the PT67-TE cells obtained in Production Example 2 were cultured in DH10 medium (Experiment No. 4), in DH10 medium containing 0.01 volume % oleic acid (Experiment No. 5), or in DH10 medium containing 0.025 volume % oleic acid (Experiment No. 6) in a 5 volume % carbon dioxide atmosphere at 37° C. for 3 days. The HaCaT-TE cells obtained in Production Example 1 or the PT67-TE cells obtained in Production Example 2 were irradiated with ultraviolet light B (UVB) at a dose of 10 mJ/cm^2, and then cultured in DH10 medium in a 5 volume % carbon dioxide atmosphere at 37° C. for 3 days (Experiment No. 7). The obtained culture was centrifuged (at 1000×g for 30 minutes) to obtain a culture supernatant. Using an anti-T7 tag antibody (produced by Novagen) and protein G Sepharose beads (produced by GE Healthcare), secreted epimorphin was collected from the obtained culture supernatant. The collected secreted epimorphin was subjected to Western blotting. Using an HRP-labeled anti-T7 tag antibody (produced by Novagen), the relationship between oleic acid and the amount of secreted epimorphin in each of the HaCaT-TE cell culture supernatant and the PT67-TE cell culture supernatant was investigated.

[2] = test system: secreted epimorphin in PT67-TE cell culture supernatant; experiment: Reference Example 2: secreted epimorphin in PT67-TE cell culture supernatant (Western blotting); type: cell-based; settings: 0.01 or 0.025 volume % oleic acid in DH10 medium, 3 days
Experimental: as §1

[3] = test system: endogenous epimorphin in HaCaT cells; experiment: Reference Example 1: Western blotting of endogenous epimorphin in HaCaT cells; type: cell-based, human; settings: 0.01 or 0.025 volume % oleic acid in DH10 medium, 3 days
Experimental: HaCaT cells were cultured in a 5 volume % carbon dioxide atmosphere at 37° C. for 3 days in DH10 medium (Experiment No. 1), in DH10 medium containing 0.01 volume % oleic acid (Experiment No. 2), or in DH10 medium containing 0.025 volume % oleic acid (Experiment No. 3). The cultured cells were isolated and the obtained cells were dissolved in a solubilizing reagent (composition: 2 volume % SDS, 10 volume % glycerol, 5 volume % 2-mercaptoethanol, 0.008 volume % bromophenol blue, and 0.65 M tris-HCl buffer (pH about 6.8)) to obtain a cell extract. Western blotting was performed using the obtained cell extract and an anti-epimorphin antibody (produced by R & D Systems), and the relationship between oleic acid and the level of expression of endogenous epimorphin in HaCaT cells was investigated. The relationship between oleic acid and the level of expression of β-actin in HaCaT cells was also investigated in the same manner as above except that an anti-β-actin antibody was used in place of the anti-epimorphin antibody.

[4] = test system: HaCaT-EPM cells; experiment: Test Example 3: lumen formation rate in HaCaT-EPM cell clusters in collagen gel; type: cell-based, human; settings: peptide 0.0001 mass %, cultured 4 days
Experimental: In the following experiment, DH10 medium was used as the medium of Experimental No. 12. 1 μL of purified water was added to 1 mL of DH10 medium to obtain a medium (Experimental No. 13).
Except for using the HaCaT-EPM cells obtained in Production Example 3 in place of the HaCaT cells in Test Example 2, and the medium of Experimental No. 12, 13, 14, or 15 in place of the medium of Experimental No. 8, 9, 10, or 11 in Test Example 2, the same procedure as in Test Example 2 was performed to calculate a lumen formation rate.

[5] = test system: differentiated cellular architecture containing HaCaT cells; experiment: Test Example 7: tissue morphology of differentiated cellular architecture containing HaCaT cells treated with oleic acid (parakeratosis); type: cell-based, human; settings: 5 μL 0.5 volume % oleic acid-containing ethanol solution and 5 μL sample with peptide 0.001 mass %; one day
Experimental: In the following experiment, DH10 medium was used as a medium of Experimental No. 36. 1 μL of purified water was added to 1 mL of DH10 medium to obtain a sample (Experimental No. 37). Further, the cyclic peptide compound obtained in Example 1 was added to DH10 medium to a concentration of 0.001 mass % to obtain a sample (Experimental No. 38). Furthermore, the linear peptide obtained in Comparative Example 1 was added to DH10 medium to a concentration of 0.001 mass %, to obtain a sample (Experimental No. 39). MRC-5 cells, which are human fetal lung fibroblast cells, were cultured in 10 mL of α-MEM (produced by Gibco Laboratories containing 10 mass % heat inactivated FCS at 37° C. in a 5 volume % carbon dioxide atmosphere for 72 hours. A support (produced by BD Bioscience Co., Ltd.; trade name: cell culture insert) was provided in each well of a 24 well culture plate. In the support, the MRC-5 cells and a collagen gel mixed solution (collagen type I, produced by Nitta Gelatin, Inc.) were mixed. The obtained mixture was formed into a gel to obtain a cell-embedded gel (1.7×10^5/mL). 0.05 ml of a 1 mg/mL fibronectin aqueous solution (produced by BD Biosciences was added to the upper surface of the obtained cell-embedded gel, and the cell-embedded gel was allowed to stand for 1 hour at room temperature. […]

[6] = test system: HaCaT cells; experiment: Test Example 2: lumen formation rate in HaCaT cell clusters in collagen gel with oleic acid; type: cell-based, human; settings: oleic acid 0.05 volume %, peptide 0.0001 mass %, cultured 4 days
Experimental: In the following experiment, DH10 was used as a medium of Experimental No. 8. […] HaCaT cells were cultured in the DH10 medium at 37° C. in a 5 volume % carbon dioxide atmosphere. Next, the obtained HaCaT cells were suspended in 350 μL of DH10 medium containing 1000 U/mL DNase I (produced by Sigma Aldrich Co.). While rotating the obtained suspended solids in a 24-well dish (produced by Corning Inc., super-low adhesion surface) at 100 min^−1, gyratory culturing was performed for 24 hours at 37° C. in a 5 volume % carbon dioxide atmosphere to form a smooth, round cell aggregate. The formed cell aggregate was embedded in a high-density collagen gel prepared with a 0.5 mass % collagen solution (type IA) (produced by Koken Co., Ltd.). Next, the cell aggregate after embedding was cultured for 4 days in a 5 volume % carbon dioxide atmosphere at 37° C. in the medium of Experimental Nos. 8, 9, 10, or 11 to form a cell cluster. The morphology of the obtained cell cluster was observed by a phase-contrast microscope. In the cell cluster, the outermost layer cells maintain the undifferentiated state because they are in contact with collagen; however, in general, cells that are located inside the undifferentiated cells of the outermost layer promptly start differentiation, and undergo anoikis. […]

[7] = test system: HaCaT-EPM cells; experiment: Test Example 1: effect on HaCaT-EPM cell growth (WST-1, Cell Counting Kit); type: cell-based, human; set-up: key to Score (growth recovery of HaCaT-EPM cells): ++: Compared to the case of using the control, significant growth recovery of HaCaT-EPM cells was detected (P≦0.01).; +: Compared to the case of using the control, significant growth recovery of HaCaT-EPM cells was detected (P≦0.05).; −: Significant growth recovery of HaCaT-EPM cells was not detected; settings: peptide 0.001 mass % in DH10 medium
Experimental: The cyclic peptide compound obtained in Example 1 was added to purified water to a concentration of […] to obtain a sample. The obtained sample was then added to DH10 medium in such an amount as to achieve a concentration of the cyclic peptide compound obtained in Example 1 of 0.001 mass %. The HaCaT-EPM cells obtained in Production Example 3 were cultured in the obtained medium at 37° C. in a 5 volume % carbon dioxide atmosphere, and the cells were collected over time. After adding 110 μL of a mixture of solution B with reagent A (trade name: “WST-1, ” produced by Dojindo) (the reagent A/Solution B ratio by volume=10/1) provided with a cell counter kit (trade name: “Cell Counting Kit,” produced by Dojindo), the collected cells were incubated for 3 hours. The absorbance of the obtained mixture at 450 nm was measured using a spectrophotometer (trade name: “ARVOtmS X 1420 Multilabel Counter,” produced by Wallac), and the effect of the mixture on the HaCaT-EPM cell growth was investigated. As a control, the above procedure was repeated, except that purified water was used in place of the cyclic peptide compound obtained in Example 1, and the effect on the growth of HaCaT-EPM cells was investigated. […]

Compound	secreted epimorphin in HaCaT-TE cell culture supernatant [1]	secreted epimorphin in PT67-TE cell culture supernatant [2]	level of expression of endogenous epimorphin in HaCaT cells [3]	lumen formation rate in cell clusters [4]	tissue morphology of the cell construct (nucleus; parakeratosis caused by oleic acid) [5]	lumen formation rate in cell clusters [6]	growth of HaCaT-EPM cells [7]	Score (growth recovery of HaCaT-EPM cells) ([7]; compared to purified water control, absorbance at 450 nm)
CCCCCCCC/C=C\CCCCCCCC(=O)O [oleic acid]	induces secretion of epimorphin	not detected	does not substantially affect					
SIEQSCD [Comparative Example 1]				low lumen formation rate	a nucleus could be observed	low lumen formation rate	grew poorly	−

Reference: US8653235B2, “Cyclic peptide compound or pharmacologically acceptable salt thereof and method for producing same” (Kwansei Gakuin Educational Foundation, priority 2010, dated 2014)
